Assay results published in PubChem BioAssay AID743341 (Broad Institute, 2014).
Results filed as inconclusive are left out.

System: C2C12 myotubes + simvastatin, MHC imaging tube length, 48 h
Test: suppression of statin-driven myotube degradation – imaging, C2C12 myotubes, MHC immunostaining, dry powder, orthogonal assay for statin myotoxicity suppressor project, confirmation (AID 743341)

SMILES | AC40 [µM]
C[C@H](CO)N1C[C@H](C)[C@H](CN(C)Cc2ccc(C(=O)Nc3ccccc3N)cc2)Oc2ccc(N(C)C)cc2C1=O | 0.581
C[C@@H]1CN([C@@H](C)CO)C(=O)c2cc(NC(=O)Cc3cn(C)c4ccccc34)ccc2O[C@@H]1CN(C)Cc1ccc(C(=O)Nc2ccccc2N)cc1 | 10.5
C[C@@H]1CN([C@H](C)CO)C(=O)c2cccc(NC(=O)Nc3ccc4c(c3)OCO4)c2O[C@H]1CN(C)Cc1ccc(C(=O)Nc2ccccc2N)cc1 | 0.76
C[C@H](CO)N1C[C@H](C)[C@H](CN(C)Cc2ccc(C(=O)Nc3ccccc3N)cc2)Oc2ccc(NC(=O)Nc3ccc(F)cc3)cc2CC1=O | 0.655
C[C@@H]1CN([C@H](C)CO)C(=O)c2cccc(NC(=O)c3nc4ccccc4s3)c2O[C@@H]1CN(C)Cc1ccc(C(=O)Nc2ccccc2N)cc1 | 1.79
C[C@@H]1CN([C@@H](C)CO)C(=O)c2cc(NC(=O)Cc3cn(C)c4ccccc34)ccc2O[C@H]1CN(C)Cc1ccc(C(=O)Nc2ccccc2N)cc1 | 10.9
C[C@H]1CN([C@@H](C)CO)C(=O)c2cc(C#Cc3ccncc3)cnc2O[C@@H]1CN(C)CC1CCCC1 | 8.86
C[C@H](CO)N1C[C@H](C)[C@H](CN(C)CC2CCCCC2)Oc2ccc(NC(=O)CCCCCC(=O)Nc3ccccc3N)cc2CC1=O | 13.2
C[C@H](CO)N1C[C@H](C)[C@H](CN(C)Cc2ccc(C(=O)Nc3ccccc3N)cc2)Oc2ccc(NC(=O)Nc3cccc4ccccc34)cc2C1=O | 5.9
C[C@H]1CN([C@@H](C)CO)C(=O)Cc2cc(NC(=O)CCCCCC(=O)Nc3ccccc3N)ccc2O[C@H]1CN(C)CC1CCCCC1 | 8.03
